Experimental data reported in patent publication US20150175644A1, “MANNOSE DERIVATIVES AS ANTAGONISTS OF BACTERIAL ADHESION” (UNIVERSITY OF BASEL, priority 2009, published 2015).

What was measured:
[1] = tested on: E. coli strain UTI89; experiment: Aggregometer assay (disaggregation of E. coli UTI89 from guinea pig erythrocytes); format: cell-based; details: relative to heptyl α-D-mannopyranoside (rIC50=1)
Description: In analogy to N. Firon, I. Ofek, N. Sharon, Biochem. Biophys. Res. Comm. 1982, 105, 1426-1432, the following assay is conducted: E. coli strain UTI89 is statically incubated in Luria-Bertani broth for 24 h, washed twice and adjusted to an optical density at 600 nm (OD600) of 4.0. The percentage of aggregation of UTI89 to guinea pig erythrocytes (GPE) is quantitatively measured using an APACT 4004 aggregometer (Endotell AG, Allschwil, Switzerland) at 740 nm, 37° C. under stirring at 1000 rpm. For calibration, first the protein poor plasma (PPP) is measured using PBS 1% and set as 100% aggregation, followed by the protein rich plasma (PRP) using GPE at an OD600 of 4.0, set as 0% aggregation. After calibration, the measurement is initiated using 250 μL GPE and 50 μL bacterial suspension. Following the aggregation phase of 600 s, 25 μL of the antagonists at different concentrations are added and disaggregation is monitored over 1400 s. The FimH-deleted mutant of E. coli UTI89 is used to proof FimH-specific GPE agglutination. For evaluation, the area under the disaggregation curve (AUC) is calculated and compared to the reference, heptyl α-D-mannopyranoside (see Table 2). The activities are reported as rel. IC50 (rIC50) with heptyl α-D-mannopyranoside as reference compound (rIC50=1).

[2] = tested on: GFP tagged E. coli strain UTI89; experiment: Flow cytometry inhibition assay (adherence of GFP tagged UTI89 to bladder cell line 5637); format: cell-based; details: for IC50: Escherichia coli; for rIC50: ratio of IC50 to IC50 of reference HM, cell line 5637
Description: The GFP tagged E. coli strain UTI89 is statically incubated in Luria-Bertani broth for 24 h, washed twice and adjusted to an optical density at 600 nm (OD600) between 2.0 and 3.0. The human epithelial bladder carcinoma cell line 5637 was grown in RPMI 1640 medium, supplemented with 10% fetal calf serum (FCS), 100 U/ml penicillin and 100 μg/ml streptomycin at 37° C., 5% CO2 in 24-well plates. Cells were infected with 200 μl bacterial suspension (multiplicity of infection of 1:50 (cell:bacteria)), premixed with 25 μl of antagonists at different concentrations. To homogenize the infection, plates were centrifuged at room temperature for 3 min at 600 g. After an incubation of 1.5 h at 37° C., infected cells were washed four times with RPMI 1640 medium and suspended in ice-cold PBS for 5-20 min. Samples were measured with a CyAn ADP flow cytometer (Becton Dickinson, San Jose, Calif.) and analyzed by gating on the eukaryotic cells based on forward (FSC) and side scatter (SSC). A total of 10^4 cells were measured per sample. Data were acquired in a linear mode for the SSC and logarithmic mode for FSC and the green fluorescent channel FL1-H (e.g. GFP). The mean fluorescence intensity (MFI) of FL1-H was counted as a surrogate marker for the adherence of bacteria. Quantification of adhesion was evaluated with the FlowJo software 9.0.1 (Tree Star, Inc., Ashland, Oreg., USA). IC50 values were determined by plotting the concentration of the antagonist in a logarithmic mode versus the MFI and by fitting the curve with the prism software (GraphPad, inhibition curve, variable slope). The relative IC50 (rIC50) is the ratio of the IC50 of the test compound to the IC50 of the reference compound HM (n-heptyl α-D-mannopyranoside.

[3] = tested on: E. coli (strain RS 218); experiment: Preliminary clotting assay (E. coli-mediated clotting of C. albicans cells); format: cell-based; details: minimal concentration that prevents clotting of C. albicans cells by E. coli RS 218; triplicate
Description: Overnight cultures of C. albicans (strain ATCC 60193) and E. coli (strain RS 218) are prepared by suspending colony material from agar plates in 10 ml trypticase soy broth (TSB) each and incubated for 16-18 h at 37° C., the culture of E. coli without shaking, but the culture of C. albicans with agitation on a horizontal shaker at 200 rpm. The cells of 2 ml of each culture are washed twice with 1 ml phosphate buffered saline (PBS) by centrifugation (10 min at 2500×g), discarding the supernatant and re-suspension of the cell pellet in fresh PBS. After the last washing step, the optical density at 600 nm is measured and adjusted to 5.0 for C. albicans (corresponding to approx. 5×10^7 viable cells/ml) and to 3.0 for E. coli (corresponding to approx. 5×10^9 viable cells/ml). […] Each test well is supplied with 33 μl PBS or the test solution of the desired concentration, and 33 μl of E. coli suspension is added and mixed by slightly tapping the plate. After 5 min 33 μl of C. albicans suspension is added to give a total volume of 100 μl per well. As a negative clumping control, one well is left without addition of E. coli. The plate is incubated for 20 min at 37° C. on a horizontal shaker at 150 rpm and the cells are allowed to settle for 10 min at r.t. before the wells are inspected with the help of a magnifier for visual clumps. For each substance the minimal concentration that prevents clotting of C. albicans cells is noted. Each experiment is performed in triplicate.

[4] = In vivo pharmacokinetics, single dose, urine and plasma sampling; parameters: species or system mouse; details: single i.v. application of 50 mg/kg, applied antagonist detected
Description: The aim is the identification of FimH antagonists suitable for intravenous (i.v.) or preferably peroral (p.o.) applications. Before infection studies in a mouse disease model could be performed, the in vivo pharmacokinetic parameters (Cmax, AUC) had to be determined, to ensure the antagonists availability in the target organ (bladder). Single-dose pharmacokinetic studies were performed by i.v. and p.o. application of the FimH antagonists at a concentration of 50 mg/kg followed by urine and plasma sampling. […] Antagonists were applied i.v. by injection into the tail vein and p.o. using a gavage followed by blood and urine sampling (10 μL) after 6 min, 30 min, 1 h, 2 h, 4 h, 6 h, 8 h and 24 h. Before analysis, proteins in blood and urine samples were precipitated using methanol and centrifuged for 11 min at 13,000 rpm. The supernatant was transferred into a 96-well plate and analyzed by LC-MS.

Row | Compound | rIC50 (measured in the aggregometer assay) [1] | IC50 [2] | rIC50 [2] | Average conc. to prevent clotting [3] | AUC0-24 i.v. ([4]; plasma) | AUC0-24 i.v. ([4]; urine)
1 | CCCCCCCO[C@H]1O[C@H](CO)[C@@H](O)[C@H](O)[C@@H]1O [HM, heptyl α-D-mannopyranoside, reference compound] | 1 | 3.9 ± 1.6 µM | 1 | 42 µM | 34.3 ± 33.3 µg·h/mL | 2469.3 ± 636.4 µg·h/mL
2 | OC[C@H]1O[C@H](Oc2ccc(-n3ccc4ccccc43)cc2F)[C@@H](O)[C@@H](O)[C@@H]1O [Compound 32, 2-Fluoro-4-(indol-1-yl)phenyl α-D-mannopyranoside] | – | – | – | 5.556 µM | – | –
3 | O=[N+]([O-])c1ccc2c(ccn2-c2ccc(O[C@H]3O[C@H](CO)[C@@H](O)[C@H](O)[C@@H]3O)c(Cl)c2)c1 [Compound 29b, 2-Chloro-4-(5-nitroindol-1-yl)phenyl α-D-mannopyranoside] | – | 0.59 ± 0.045 µM | 0.15 | 0.556 µM | – | –
4 | OC[C@H]1O[C@H](Oc2ccc(-n3ccc4ccccc43)cc2Cl)[C@@H](O)[C@@H](O)[C@@H]1O [Compound 29a, 2-Chloro-4-(indol-1-yl)phenyl α-D-mannopyranoside] | – | – | – | 1.111 µM | – | –
5 | O=[N+]([O-])c1ccc2c(ccn2-c2ccc(O[C@H]3O[C@H](CO)[C@@H](O)[C@H](O)[C@@H]3O)c(F)c2)c1 [Compound 34, 2-Fluoro-4-(5-nitroindol-1-yl)phenyl α-D-mannopyranoside] | – | – | – | 0.833 µM | – | –
